One experiment concerns normal male SD rats. Description: Plasma Ca^2+ level of rats after single oral administration. It counts as in vivo. As to conditions: rat, mean of six animals; for Plasma Ca^2+ (mmol/l) 1 hr: 1 hr after single oral dose 30 μmol/kg; for Plasma Ca^2+ (mmol/l) 2 hr: 2 hr after single oral dose 30 μmol/kg; for Plasma Ca^2+ (mmol/l) 4 hr: 4 hr after single oral dose 30 μmol/kg; for Plasma Ca^2+ (mmol/l) 8 hr: 8 hr after single oral dose 30 μmol/kg; for Plasma Ca^2+ (mmol/l) 24 hr: 24 hr after single oral dose 30 μmol/kg; for Plasma Ca^2+ (mmol/l) 48 hr: 48 hr after single oral dose 30 μmol/kg, vehicle 10% cyclodextrin. Summed up: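 Normal male SD rats (n=6/group) received a single oral dose of 30 μmol/kg in 10% cyclodextrin or, for some compounds, 1% sodium-CMC; vehicle controls received 2.5 ml/kg. Tail blood was drawn pre-dose and at 30 min and 1, 2, 4, 8 and 24 h for plasma Ca^2+ and serum PTH. PTH was compared with vehicle by Steel's test.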

The target in the next experiment is T1, human calcium receptor (Homo sapiens, UniProt P41180).
T1 construct: expressed in transfected cells; host or cells: HEK293
T1 sequence (P41180 20-1078): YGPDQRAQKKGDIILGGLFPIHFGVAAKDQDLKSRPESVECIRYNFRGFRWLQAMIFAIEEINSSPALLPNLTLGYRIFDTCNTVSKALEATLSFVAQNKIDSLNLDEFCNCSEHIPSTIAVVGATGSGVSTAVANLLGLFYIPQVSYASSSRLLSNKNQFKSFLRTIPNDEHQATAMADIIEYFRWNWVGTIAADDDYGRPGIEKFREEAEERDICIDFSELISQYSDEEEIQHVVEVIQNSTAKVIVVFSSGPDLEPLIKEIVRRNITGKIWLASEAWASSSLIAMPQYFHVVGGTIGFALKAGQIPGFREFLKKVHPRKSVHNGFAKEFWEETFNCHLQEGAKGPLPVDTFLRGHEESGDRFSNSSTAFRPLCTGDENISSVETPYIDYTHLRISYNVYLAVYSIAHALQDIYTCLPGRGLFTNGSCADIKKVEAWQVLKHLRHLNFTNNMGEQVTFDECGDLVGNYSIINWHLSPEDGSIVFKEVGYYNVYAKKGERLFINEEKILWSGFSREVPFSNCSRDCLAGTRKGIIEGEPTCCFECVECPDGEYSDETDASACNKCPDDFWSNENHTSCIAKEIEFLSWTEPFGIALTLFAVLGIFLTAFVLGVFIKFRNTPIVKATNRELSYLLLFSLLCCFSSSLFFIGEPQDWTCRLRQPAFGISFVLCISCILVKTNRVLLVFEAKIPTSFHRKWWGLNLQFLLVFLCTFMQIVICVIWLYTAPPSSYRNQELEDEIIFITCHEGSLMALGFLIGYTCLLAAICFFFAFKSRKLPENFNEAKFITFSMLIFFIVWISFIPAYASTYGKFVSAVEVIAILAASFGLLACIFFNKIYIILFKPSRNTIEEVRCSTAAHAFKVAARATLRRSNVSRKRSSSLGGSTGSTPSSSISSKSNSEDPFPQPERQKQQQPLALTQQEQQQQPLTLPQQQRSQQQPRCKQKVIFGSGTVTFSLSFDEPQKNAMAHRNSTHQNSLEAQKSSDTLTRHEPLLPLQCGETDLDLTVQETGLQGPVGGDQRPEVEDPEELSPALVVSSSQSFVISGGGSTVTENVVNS
Description: Activity on calcium receptors: fluo-3 fluorescence in HEK293 cells transfected with human calcium receptor gene. It counts as cell-based. As to conditions: HEK293 cells transfected with plasmid pHuPCaR4.0 (human calcium receptor gene), loaded with fluo-3; 1 mM CaCl2, 1 mM MgCl2. Summed up:
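HEK293 cells transfected with human calcium receptor plasmid, loaded 1 h at 37 °C with about 5 μM fluo-3/AM. Cells then rinsed into HEPES-buffered HBSS with 1 mM CaCl2 and 1 mM MgCl2. Fluorescence read at 485/540 nm after compound addition.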

Where [1] appears, read: vehicle 10% cyclodextrin (** 1% sodium-CMC).

By EC50 is commonly meant the concentration that produces a half-maximal response. Take `C[C@@H](NCCC(=O)N(Cc1ccc(Cl)cc1)Cc1ccc(OC(F)(F)F)cc1)c1cccc2ccccc12` [Compound K-2283, N1-(4-chlorobenzyl)-N1-[4-(trifluoromethoxy)benzyl)-3-{[(1R)-1-(1-naphthyl)ethyl]-amino}propanamide]: in the experiment on normal male SD rats (setting [1]), the “Plasma Ca^2+ (mmol/l) 1 hr” value stood at 1.395 mmol/L, the “Plasma Ca^2+ (mmol/l) 2 hr” value amounted to 1.305 mmol/L, the “Plasma Ca^2+ (mmol/l) 4 hr” value is 1.210 mmol/L and the “Plasma Ca^2+ (mmol/l) 8 hr” value was 1.253 mmol/L. Moreover, the EC50 on human calcium receptor was found to be 93 nM.

`C[C@@H](NCCCCCSc1c(F)c(F)c(C(F)(F)F)c(F)c1F)c1cccc2ccccc12` [Compound K-2284, N-[(1R)-1-(1-naphthyl)ethyl]-N-(5-{[2,3,5,6-tetrafluoro-4-(trifluoromethyl)phenyl]thio}pentyl) amine]: in the experiment on normal male SD rats (setting [1]), the “Plasma Ca^2+ (mmol/l) 1 hr” value was 1.377 mmol/L, the “Plasma Ca^2+ (mmol/l) 2 hr” value worked out at 1.267 mmol/L, the “Plasma Ca^2+ (mmol/l) 4 hr” value is 1.152 mmol/L and the “Plasma Ca^2+ (mmol/l) 8 hr” value is 1.102 mmol/L. For the same molecule, at human calcium receptor, the EC50 was determined as 360 nM.

As to `C[C@@H](NCCCCCCSc1ccc(Cl)cc1)c1cccc2ccccc12` [Compound K-2286, N-{6-[(4-chlorophenyl)thio]hexyl}-N-[(1R)-1-(1-naphthyl)ethyl]amine], in the experiment on normal male SD rats (setting [1]), the “Plasma Ca^2+ (mmol/l) 1 hr” value was 1.318 mmol/L, the “Plasma Ca^2+ (mmol/l) 2 hr” value worked out at 1.218 mmol/L, the “Plasma Ca^2+ (mmol/l) 4 hr” value turned out to be 1.088 mmol/L and the “Plasma Ca^2+ (mmol/l) 8 hr” value came to 1.098 mmol/L. Moreover, the “Plasma Ca^2+ (mmol/l) 24 hr” value with normal male SD rats (setting [1]) came out at 1.390 mmol/L. Moreover, in the experiment on normal male SD rats, the “Plasma Ca^2+ (mmol/l) 48 hr” value came to 1.412 mmol/L. In addition, the EC50 on human calcium receptor worked out at 620 nM.

Consider `C[C@@H](NCCCCSc1ccc(OC(F)(F)F)cc1)c1cccc2ccccc12` [Compound K-2287, N-[(1R)-1-(1-naphthyl)ethyl]-N-(4-{[4-(trifluoromethoxy)phenyl)thio]butyl)amine], for which, in the experiment with normal male SD rats (setting [1]), the “Plasma Ca^2+ (mmol/l) 1 hr” value amounted to 1.180 mmol/L, the “Plasma Ca^2+ (mmol/l) 2 hr” value came to 1.042 mmol/L, the “Plasma Ca^2+ (mmol/l) 4 hr” value was 0.955 mmol/L and the “Plasma Ca^2+ (mmol/l) 8 hr” value was 0.950 mmol/L. Also, the “Plasma Ca^2+ (mmol/l) 24 hr” value in the experiment with normal male SD rats (setting [1]) came out at 1.200 mmol/L. The “Plasma Ca^2+ (mmol/l) 48 hr” value in the experiment on normal male SD rats was found to be 1.392 mmol/L. The EC50 at human calcium receptor was 62 nM.

With `C[C@@H](NCCCCCSc1ccc(OC(F)(F)F)cc1)c1cccc2ccccc12` [Compound K-2288, N-[(1R)-1-(1-naphthyl)ethyl]-N-(5-{[4-(trifluoromethoxy)phenyl)thio]pentyl)amine], in the experiment with normal male SD rats (setting [1]), the “Plasma Ca^2+ (mmol/l) 1 hr” value was 1.190 mmol/L, the “Plasma Ca^2+ (mmol/l) 2 hr” value was determined as 1.057 mmol/L, the “Plasma Ca^2+ (mmol/l) 4 hr” value came to 0.955 mmol/L and the “Plasma Ca^2+ (mmol/l) 8 hr” value came out at 0.905 mmol/L. Besides, in the experiment on normal male SD rats (setting [1]), the “Plasma Ca^2+ (mmol/l) 24 hr” value came out at 1.162 mmol/L. Further, the “Plasma Ca^2+ (mmol/l) 48 hr” value in the experiment on normal male SD rats came to 1.387 mmol/L. Besides, the 50% effective concentration (EC50) on human calcium receptor came to 140 nM.

Regarding `COc1ccc(CN(Cc2ccc(Cl)cc2)C(=O)CCN[C@H](C)c2cccc3ccccc23)cc1` [Compound K-2289, N1-(4-chlorobenzyl)-N1-(4-methoxybenzyl)-3-{[(1R)-1-(1-naphthyl)ethyl]amino}propanamide], in the experiment on normal male SD rats (setting [1]), the “Plasma Ca^2+ (mmol/l) 1 hr” value was determined as 1.270 mmol/L, the “Plasma Ca^2+ (mmol/l) 2 hr” value amounted to 1.173 mmol/L, the “Plasma Ca^2+ (mmol/l) 4 hr” value was 1.003 mmol/L and the “Plasma Ca^2+ (mmol/l) 8 hr” value was 1.093 mmol/L. Also, the 50% effective concentration (EC50) at human calcium receptor was determined as 74 nM.

For `COc1ccc(CN(Cc2ccc(C(F)(F)F)cc2)C(=O)CCN[C@H](C)c2cccc3ccccc23)cc1` [Compound K-2290, N1-(4-methoxybenzyl)-N1-[4-(trifluoromethyl)benzyl)-3-{[(1R)-1-(1-naphthyl)ethyl]amino}propanamide], in the experiment on normal male SD rats (setting [1]), the “Plasma Ca^2+ (mmol/l) 1 hr” value was found to be 1.428 mmol/L, the “Plasma Ca^2+ (mmol/l) 2 hr” value was 1.248 mmol/L, the “Plasma Ca^2+ (mmol/l) 4 hr” value amounted to 1.063 mmol/L and the “Plasma Ca^2+ (mmol/l) 8 hr” value came out at 1.055 mmol/L. The concentration for a half-maximal effect (EC50) on human calcium receptor was determined as 100 nM.

Take `C[C@@H](NCCC(=O)N(Cc1ccc(Cl)cc1)Cc1ccc2ccccc2c1)c1cccc2ccccc12` [Compound K-2291, N1-(4-chlorobenzyl)-N1-(2-naphthylmethyl)-3-{[(1R)-1-(1-naphthyl)ethyl]amino}propanamide]: in the experiment with normal male SD rats (setting [1]), the “Plasma Ca^2+ (mmol/l) 1 hr” value was found to be 1.298 mmol/L, the “Plasma Ca^2+ (mmol/l) 2 hr” value turned out to be 1.247 mmol/L, the “Plasma Ca^2+ (mmol/l) 4 hr” value is 1.130 mmol/L and the “Plasma Ca^2+ (mmol/l) 8 hr” value was 1.132 mmol/L. Moreover, at human calcium receptor, the EC50 was found to be 81 nM.

Take `C[C@@H](NCCCCCCCSc1c(F)c(F)c(C(F)(F)F)c(F)c1F)c1cccc2ccccc12` [Compound K-2292, N-[(1R)-1-(1-naphthyl)ethyl]-N-(7-{[2,3,5,6-tetrafluoro-4-(trifluoromethyl)phenyl]thio}heptyl)amine]: in the experiment on normal male SD rats (setting [1]), the “Plasma Ca^2+ (mmol/l) 1 hr” value was 1.375 mmol/L, the “Plasma Ca^2+ (mmol/l) 2 hr” value turned out to be 1.252 mmol/L, the “Plasma Ca^2+ (mmol/l) 4 hr” value came to 1.152 mmol/L and the “Plasma Ca^2+ (mmol/l) 8 hr” value is 1.108 mmol/L. Also, the concentration giving a half-maximal response (EC50) at human calcium receptor was determined as 74 nM.

For `C[C@@H](NCCCCSc1ccc(Cl)cc1)c1cccc2ccccc12` [Compound K-2293, N-{4-[(4-chlorophenyl)thio]butyl}-N-[(1R)-1-(1-naphthyl)ethyl]amine], in the experiment on normal male SD rats (setting [1]), the “Plasma Ca^2+ (mmol/l) 1 hr” value was 1.245 mmol/L, the “Plasma Ca^2+ (mmol/l) 2 hr” value was determined as 1.152 mmol/L, the “Plasma Ca^2+ (mmol/l) 4 hr” value was 1.068 mmol/L and the “Plasma Ca^2+ (mmol/l) 8 hr” value came out at 1.088 mmol/L. In addition, the EC50 on human calcium receptor was determined as 280 nM.

With `Cc1ccc(CN(Cc2ccc(Cl)c(Cl)c2)C(=O)CCN[C@H](C)c2cccc3ccccc23)cc1` [Compound K-2294, N1-(3,4-dichlorobenzyl)-N1-(4-methylbenzyl)-3-{[(1R)-1-(1-naphthyl)ethyl]amino}propanamide], in the experiment on normal male SD rats (setting [1]), the “Plasma Ca^2+ (mmol/l) 1 hr” value stood at 1.357 mmol/L, the “Plasma Ca^2+ (mmol/l) 2 hr” value came to 1.255 mmol/L, the “Plasma Ca^2+ (mmol/l) 4 hr” value came to 1.117 mmol/L and the “Plasma Ca^2+ (mmol/l) 8 hr” value was determined as 1.022 mmol/L. Also, on human calcium receptor, the EC50 was 62 nM.

As to `C[C@@H](NCCCCCSc1cc(Cl)ccc1Cl)c1cccc2ccccc12` [Compound K-2296, N-{[5-(2,5-dichlorophenyl)thio]pentyl}N-[(1R)-1-(1-naphthyl)ethyl]amine], the “Plasma Ca^2+ (mmol/l) 0 hr” value in the experiment with normal male SD rats (0 hr = before oral administration of 30 μmol/kg, vehicle 10% cyclodextrin (** 1% sodium-CMC)) was 1.410 mmol/L. Besides, in the experiment on normal male SD rats (setting [1]), the “Plasma Ca^2+ (mmol/l) 1 hr” value stood at 1.340 mmol/L, the “Plasma Ca^2+ (mmol/l) 2 hr” value came out at 1.195 mmol/L, the “Plasma Ca^2+ (mmol/l) 4 hr” value was found to be 1.113 mmol/L and the “Plasma Ca^2+ (mmol/l) 8 hr” value is 1.083 mmol/L. Besides, the concentration giving a half-maximal response (EC50) on human calcium receptor is 220 nM.

For the molecule `C[C@@H](NCCCCSc1c(F)c(F)c(C(F)(F)F)c(F)c1F)c1cccc2ccccc12` [Compound K-2297, N-[(1R)-1-(1-naphthyl)ethyl]-N-(4-{[2,3,5,6-tetrafluoro-4-(trifluoromethyl)phenyl]thio}butyl)amine], in the experiment on normal male SD rats (setting [1]), the “Plasma Ca^2+ (mmol/l) 1 hr” value came out at 1.393 mmol/L, the “Plasma Ca^2+ (mmol/l) 2 hr” value is 1.305 mmol/L, the “Plasma Ca^2+ (mmol/l) 4 hr” value was 1.172 mmol/L and the “Plasma Ca^2+ (mmol/l) 8 hr” value stood at 1.082 mmol/L. Also, the concentration for a half-maximal effect (EC50) at human calcium receptor is 230 nM.

These data come from patent publication US7816408B2, “Calcium receptor active compounds” (NPS Pharmaceuticals, Inc., priority 2002, dated 2010).
